Experimental data reported in ChEMBL document CHEMBL1938320, “Biological evaluation and docking studies of recently identified inhibitors of phosphoinositide-3-kinases” (Bioorg Med Chem Lett, 2012).
The source made the active and inactive calls. No cut-off for these calls is given here.

What was measured:
[1] = tested on: HCT-116; experiment: Growth inhibition of human HCT116 cells overexpressing PI3Kalpha H1047R mutant after 48 hrs by MTT assay; type: functional, cell-based; conditions: HCT-116, 48 h
[2] = tested on: HCT-116; experiment: cells; conditions: Homo sapiens, HCT-116, 48 h
Description: Growth inhibition of human HCT116 cells after 48 hrs by MTT assay

[3] = tested on: HCT-116; experiment: Induction of apoptosis in human HCT116 cells overexpressing PI3Kalpha H1047R mutant assessed DNA fragmentation at 25 uM after 48 hrs by ELISA relative to control; type: functional
[4] = tested on: Phosphatidylinositol 4,5-bisphosphate 3-kinase catalytic subunit alpha isoform (Homo sapiens), P42336 [H1047R]; experiment: Inhibition of PI3Kalpha H1047R mutant in human HCT116 cells assessed as inhibition of Akt Ser473 phosphorylation at 25 uM by immunoblot analysis; type: cell-based; conditions: HCT-116
Phosphatidylinositol 4,5-bisphosphate 3-kinase catalytic subunit alpha isoform (Homo sapiens), P42336 [H1047R], sequence (P42336 whole entry H1047R, the tested form may be a part, canonical isoform): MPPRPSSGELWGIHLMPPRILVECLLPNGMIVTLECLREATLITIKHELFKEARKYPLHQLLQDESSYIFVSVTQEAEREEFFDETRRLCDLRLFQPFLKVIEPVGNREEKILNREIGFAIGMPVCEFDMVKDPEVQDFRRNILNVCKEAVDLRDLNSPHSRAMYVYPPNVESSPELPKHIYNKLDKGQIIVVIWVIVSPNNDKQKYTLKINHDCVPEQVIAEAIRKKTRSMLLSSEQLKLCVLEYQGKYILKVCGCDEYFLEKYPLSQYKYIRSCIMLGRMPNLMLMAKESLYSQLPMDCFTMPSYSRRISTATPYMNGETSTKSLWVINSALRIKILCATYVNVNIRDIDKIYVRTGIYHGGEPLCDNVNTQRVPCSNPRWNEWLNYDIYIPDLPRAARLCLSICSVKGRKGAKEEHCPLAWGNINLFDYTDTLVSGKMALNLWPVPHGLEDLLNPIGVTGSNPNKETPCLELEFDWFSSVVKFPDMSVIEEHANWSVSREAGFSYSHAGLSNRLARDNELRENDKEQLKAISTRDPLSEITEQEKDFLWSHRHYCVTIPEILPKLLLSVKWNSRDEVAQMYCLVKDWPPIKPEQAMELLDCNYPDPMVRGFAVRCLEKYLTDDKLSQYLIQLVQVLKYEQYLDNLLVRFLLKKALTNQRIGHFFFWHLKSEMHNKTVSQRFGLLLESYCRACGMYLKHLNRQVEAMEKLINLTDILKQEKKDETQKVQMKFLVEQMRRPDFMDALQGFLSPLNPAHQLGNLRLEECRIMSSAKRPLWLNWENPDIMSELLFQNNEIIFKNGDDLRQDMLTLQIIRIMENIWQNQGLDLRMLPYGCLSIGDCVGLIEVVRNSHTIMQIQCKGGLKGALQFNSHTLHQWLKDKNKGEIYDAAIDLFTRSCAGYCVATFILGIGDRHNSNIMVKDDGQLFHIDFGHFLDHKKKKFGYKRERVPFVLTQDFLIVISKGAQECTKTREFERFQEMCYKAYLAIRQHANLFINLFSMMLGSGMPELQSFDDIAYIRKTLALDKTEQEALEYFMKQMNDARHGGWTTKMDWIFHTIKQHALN

[5] = tested on: HCT-116; experiment: Induction of apoptosis in human HCT116 cells assessed DNA fragmentation at 25 uM after 48 hrs by ELISA relative to control; type: functional
[6] = tested on: HCT-116; experiment: Induction of apoptosis in human HCT116 cells overexpressing PI3Kalpha assessed DNA fragmentation at 25 uM after 48 hrs by ELISA relative to control; type: functional
[7] = biological target: Phosphatidylinositol 4,5-bisphosphate 3-kinase catalytic subunit alpha isoform (Homo sapiens) (UniProt P42336); experiment: Inhibition of PI3Kalpha in human HCT116 cells using [32P]ATP at 25 uM after 10 mins; type: cell-based; conditions: HCT-116
Phosphatidylinositol 4,5-bisphosphate 3-kinase catalytic subunit alpha isoform (Homo sapiens), sequence (P42336 whole entry, canonical isoform): as the sequence (P42336 whole entry H1047R, the tested form may be a part, canonical isoform) above, with R1047H counted along it

[8] = tested on: HCT-116; experiment: Inhibition of Akt expression in human HCT116 cells at 10 uM by immunoblot analysis; type: functional, cell-based
[9] = tested on: HCT-116; experiment: Growth inhibition of human HCT116 cells overexpressing PI3Kalpha after 48 hrs by MTT assay; type: functional, cell-based; conditions: HCT-116, 48 h
[10] = biological target: Phosphatidylinositol 4,5-bisphosphate 3-kinase catalytic subunit alpha isoform (Homo sapiens) (UniProt P42336); experiment: Inhibition of PI3Kalpha in human HCT116 cells assessed as inhibition of Akt Ser473 phosphorylation at 25 uM by immunoblot analysis; type: cell-based; conditions: HCT-116
[11] = tested on: Phosphatidylinositol 4,5-bisphosphate 3-kinase catalytic subunit alpha isoform (Homo sapiens), P42336 [H1047R]; experiment: Inhibition of PI3Kalpha H1047R mutant in human HCT116 cells using [32P]ATP at 25 uM after 10 mins; type: cell-based; conditions: HCT-116
[12] = tested on: Phosphatidylinositol 4,5-bisphosphate 3-kinase catalytic subunit alpha isoform (Homo sapiens), P42336 [H1047R]; experiment: Inhibition of PI3Kalpha H1047R mutant in human HCT116 cells using [32P]ATP at 10 uM after 10 mins; type: cell-based; conditions: HCT-116
[13] = biological target: Phosphatidylinositol 4,5-bisphosphate 3-kinase catalytic subunit alpha isoform (Homo sapiens) (UniProt P42336); experiment: Inhibition of PI3Kalpha in human HCT116 cells using [32P]ATP at 10 uM after 10 mins; type: cell-based; conditions: HCT-116
[14] = biological target: Phosphatidylinositol 4,5-bisphosphate 3-kinase catalytic subunit alpha isoform (Homo sapiens) (UniProt P42336); experiment: Inhibition of PI3Kalpha in human HCT116 cells assessed as inhibition of Akt Ser473 phosphorylation at 10 uM by immunoblot analysis; type: cell-based; conditions: HCT-116
[15] = tested on: Phosphatidylinositol 4,5-bisphosphate 3-kinase catalytic subunit alpha isoform (Homo sapiens), P42336 [H1047R]; experiment: Inhibition of PI3Kalpha H1047R mutant in human HCT116 cells assessed as inhibition of Akt Ser473 phosphorylation at 10 uM by immunoblot analysis; type: cell-based; conditions: HCT-116

Row | Compound | IC50 [1] [µM] | IC50 [2] [µM] | fold change (FC) [3] | inhibition [4] | fold change (FC) [5] | fold change (FC) [6] | inhibition [7] | inhibition [8] | IC50 [9] [µM] | inhibition [10] | inhibition [11] | inhibition [12] | inhibition [13] | inhibition [14] | inhibition [15]
1 | O=c1c(O)c(-c2ccc(O)c(O)c2)oc2cc(O)cc(O)c12 [QUERCETIN] | 5.7 | 6.7 | 4 | Active | 1 | 2.5 | Active | inactive | 23 | Active | Active |  |  |  | 
2 | O=C(NCc1ccccc1)c1c(O)nc2ccccc2c1O | 0.73 | 1.8 | 11 | Active | 2.9 | 3.2 | Active | inactive | 1.1 | Active | Active |  |  |  | 
3 | COc1ccc(C(=O)c2ccccc2C(=O)O)c(O)c1 | 18 | 13 | 3 | Active | 1.8 | 1.3 | Active | inactive | 31 | Active | Active |  |  |  | 
4 | O=c1cc(N2CCOCC2)oc2c(-c3ccccc3)cccc12 [LY-294002] |  |  | 8.6 |  | 3.8 | 8.5 |  | inactive |  |  |  | Active | Active | Active | Active
5 | O=c1c(O)c(-c2cc(O)c(O)c(O)c2)oc2cc(O)cc(O)c12 [MYRICETIN] |  |  |  | Active |  |  | Active | inactive |  | Active | Active |  |  |  | 
6 | Cc1cc(O)c2c(c1)C(=O)c1cc(O)cc(O)c1C2=O [EMODIN] | 3.8 | 6.2 | 13 |  | 8.6 | 12 |  | Active | 5.3 |  |  | Active | Active | Active | Active
